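These data come from cells grown in 96-well plates and exposed to compound for 48 hours at five concentrations. The concentration for full growth arrest is given as TGI.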
Key:
Assay in all cases: NCI anticancer screen, dose series, 48 h
RXF 393 renal = system: RXF 393 renal
SR leukemia = system: SR leukemia
DMS 114 small cell lung = system: DMS 114 small cell lung
DMS 273 small cell lung = system: DMS 273 small cell lung
HOP-18 NSCLC = system: HOP-18 NSCLC
KM20L2 colon = system: KM20L2 colon
LXFL 529 NSCLC = system: LXFL 529 NSCLC
M19-MEL melanoma = system: M19-MEL melanoma
SNB-78 CNS = system: SNB-78 CNS
XF 498 CNS = system: XF 498 CNS
DLD-1 colon = system: DLD-1 colon
RXF-631 renal = system: RXF-631 renal

With `c1ccc([P+](CCNCCNCC[P+](c2ccccc2)(c2ccccc2)c2ccccc2)(c2ccccc2)c2ccccc2)cc1` the TGI (RXF 393 renal) was greater than 100 µM.

Work on `CCCCCCCCCC[C@@H](O)[C@H]1CC[C@H]([C@H]2CC[C@H]([C@H](O)CCCCCCCCCC[C@@H]3CC(CC(C)=O)C(=O)O3)O2)O1` (stereo partly specified) yielded a TGI (RXF 393 renal) greater than 50 µM.

In the case of `CC1(C)CC2(C)CC1CC2O` (stereo unspecified), the TGI (RXF 393 renal) is reported as greater than 100 µM and the TGI (SR leukemia) is reported as greater than 100 µM.

Compound `CCOC(=O)c1cc(C2(O)CCN(Cc3ccccc3)C2=O)c(-c2cc(C)no2)[nH]1` (stereo unspecified) has a TGI (RXF 393 renal) of 65.7 µM and a TGI (SR leukemia) greater than 100 µM.

Compound `Cc1ccc(-c2cc(N)n(-c3nc4c([nH]3)c(=O)n(C)c(=O)n4C)n2)cc1` has a TGI (RXF 393 renal) of 81.1 µM and a TGI (SR leukemia) greater than 100 µM.

Compound `Nc1nc2ncc(SCc3ccc(C(=O)NC(CCC(=O)O)C(=O)O)cc3)cc2c(=O)[nH]1` (stereo unspecified) has a TGI (SR leukemia) greater than 100 µM.

In the case of `c1cc2nnc1SCCSCCSc1ccc(nn1)SCCSCCS2`, the TGI (RXF 393 renal) is reported as greater than 100 µM and the TGI (SR leukemia) is reported as greater than 100 µM.

Work on `O=C1CC2(C[C@@H]3CCCCCCCCC[C@@H](C3)C2)N1` (stereo partly specified) yielded a TGI (DMS 114 small cell lung) of 31.6 µM, a TGI (DMS 273 small cell lung) of 25.3 µM and a TGI (HOP-18 NSCLC) of 22.6 µM. It also gave a TGI (KM20L2 colon) of 31.4 µM, a TGI (LXFL 529 NSCLC) of 29.7 µM and a TGI (M19-MEL melanoma) of 28.8 µM. It also gave a TGI (RXF 393 renal) of 30.9 µM, a TGI (SNB-78 CNS) of 49.6 µM and a TGI (SR leukemia) of 30.7 µM. The TGI (XF 498 CNS) was 24.9 µM.

Work on `N#CCCN(c1ccc(C=Nc2cccc([N+](=O)[O-])c2)cc1)S(=O)(=O)c1ccccc1` yielded a TGI (DLD-1 colon) greater than 100 µM, a TGI (DMS 114 small cell lung) greater than 100 µM and a TGI (DMS 273 small cell lung) greater than 100 µM. The TGI (LXFL 529 NSCLC) was greater than 100 µM, the TGI (RXF-631 renal) was greater than 100 µM and the TGI (SNB-78 CNS) was greater than 100 µM. For the same compound, the TGI (SR leukemia) was greater than 100 µM and the TGI (XF 498 CNS) was greater than 100 µM.

Work on `CCOC(=O)c1cc2c([N+](=O)[O-])c(NC(C)=O)ccc2s1` yielded a TGI (RXF 393 renal) greater than 100 µM.

Compound `CCOC(=O)c1c(NC(=O)c2ccccc2)sc2c1CCCC2` has a TGI (RXF 393 renal) greater than 100 µM.

`COC(=O)C1(Cc2ccccc2)Cc2cc3c(cc2C1=O)CCC3` (stereo unspecified) was tested, and the TGI (RXF 393 renal) was greater than 100 µM and the TGI (SR leukemia) was 47.2 µM.

With `COc1ccc2nc(-c3ccc(OCc4ccccc4)cc3)ccc2c1` the TGI (DLD-1 colon) was greater than 100 µM, the TGI (DMS 114 small cell lung) was greater than 100 µM and the TGI (HOP-18 NSCLC) was greater than 100 µM. The TGI (KM20L2 colon) was greater than 100 µM, the TGI (LXFL 529 NSCLC) was greater than 100 µM and the TGI (M19-MEL melanoma) was greater than 100 µM. For the same compound, the TGI (RXF 393 renal) was greater than 100 µM, the TGI (SNB-78 CNS) was greater than 100 µM and the TGI (SR leukemia) was greater than 100 µM. For the same compound, the TGI (XF 498 CNS) was greater than 100 µM.

With `Cc1sc2nc3n(c(=O)c2c1C)N=CN(c1ccccc1)C3` the TGI (RXF 393 renal) was greater than 100 µM and the TGI (SR leukemia) was greater than 100 µM.

`C/C(=N\NC(=S)NC(C)C)c1nc2ncccc2[nH]1` was tested, and the TGI (RXF 393 renal) was greater than 100 µM and the TGI (SR leukemia) was greater than 100 µM.

`CCOC(=O)CCC(NC(=O)c1ccc(OCc2nc3cc(C(F)(F)F)ccc3nc2-c2ccccc2)cc1)C(=O)OCC` (stereo unspecified) was tested, and the TGI (RXF 393 renal) was greater than 100 µM and the TGI (SR leukemia) was greater than 100 µM.

For `O=c1[nH]cnc2c(C3OC(CO)C(O)C3O)c[nH]c12` (stereo unspecified), the TGI (RXF 393 renal) was greater than 100 µM and the TGI (SR leukemia) was greater than 100 µM.

`CC[C@@H]1CC[C@@H]2[C@H](CC[C@]3(C)[C@@H](O)CC[C@@H]23)[C@H]1C(=O)O` gave a TGI (RXF 393 renal) greater than 100 µM.

With `CCN(CC)CCOC(c1cc(OC)ccc1OC)c1ccc2n1-c1ccccc1OC2` (stereo unspecified) the TGI (RXF 393 renal) was 21.4 µM.

For `CCOC(=O)c1sc2nc(SC)nc3c2c1N=CN3c1ccc(Br)cc1`, the TGI (RXF 393 renal) was greater than 100 µM and the TGI (SR leukemia) was greater than 100 µM.

`COc1ccc2c(c1)c1c(n2CCN2CCOCC2)-c2ccccc2CC1` showed a TGI (RXF 393 renal) greater than 100 µM and a TGI (SR leukemia) of 43.7 µM.

`CC1C(c2cc(C(C)(C)C)c(O)c(C(C)(C)C)c2)c2cc3c(cc2OC1N1CCOCC1)OCO3` (stereo unspecified) was tested, and the TGI (SR leukemia) was greater than 100 µM.

`COC1O[C@H]2CCN(C(=O)OCc3ccccc3)[C@H]2[C@H]1OCc1ccccc1` (stereo partly specified) gave a TGI (DLD-1 colon) greater than 100 µM, a TGI (DMS 114 small cell lung) greater than 86.2 µM and a TGI (DMS 273 small cell lung) greater than 100 µM. It also gave a TGI (HOP-18 NSCLC) greater than 100 µM, a TGI (KM20L2 colon) greater than 100 µM and a TGI (LXFL 529 NSCLC) greater than 100 µM. The TGI (M19-MEL melanoma) was greater than 100 µM, the TGI (RXF 393 renal) was greater than 100 µM and the TGI (SNB-78 CNS) was greater than 100 µM. The TGI (SR leukemia) was 99.7 µM and the TGI (XF 498 CNS) was greater than 100 µM.

In the case of `Cc1ccc(S(=O)(=O)N2CCN3C(=O)c4ccccc4C32c2ccc(F)cc2)cc1` (stereo unspecified), the TGI (RXF 393 renal) is reported as greater than 100 µM and the TGI (SR leukemia) is reported as 52.8 µM.

`Cc1cc2c(c(C(=O)NCCC(=O)O)c1)Oc1c(cc(C)cc1C(=O)NCCC(=O)O)S2` showed a TGI (RXF 393 renal) greater than 100 µM and a TGI (SR leukemia) greater than 100 µM.

Work on `Cc1ccc2c(c1C)CC1(Cc3c(ccc4c3CCC4)C1=O)C2=O` (stereo unspecified) yielded a TGI (RXF 393 renal) greater than 100 µM.

Compound `CC12CC(c3ccccc3O1)C(C(=O)Nc1ccc(F)cc1)C(=O)N2` (stereo unspecified) has a TGI (SR leukemia) greater than 100 µM.

Work on `O=C1CC2C=CC(O)C(C1)C2` (stereo unspecified) yielded a TGI (RXF 393 renal) of 12.2 µM and a TGI (SR leukemia) greater than 100 µM.

With `Cc1cc(-c2nc3ccccc3s2)ccc1NS(=O)(=O)O` the TGI (RXF 393 renal) was greater than 100 µM and the TGI (SR leukemia) was greater than 100 µM.

With `Cc1c(Cl)ccc2c(=O)c3cccc(CC(=O)O)c3oc12` the TGI (SR leukemia) was greater than 100 µM.

Compound `Clc1nc(Cl)nc(NC23CC4CC(CC(C4)C2)C3)n1` has a TGI (RXF 393 renal) of 32.1 µM and a TGI (SR leukemia) of 47.7 µM.

Work on `O=C1O[C@@H](c2ccccc2)C[C@@H]1CN1CCOCC1` yielded a TGI (DLD-1 colon) greater than 100 µM, a TGI (DMS 114 small cell lung) greater than 100 µM and a TGI (KM20L2 colon) greater than 100 µM. The TGI (LXFL 529 NSCLC) was greater than 100 µM, the TGI (RXF 393 renal) was greater than 100 µM and the TGI (RXF-631 renal) was greater than 100 µM. The TGI (SNB-78 CNS) was greater than 100 µM and the TGI (XF 498 CNS) was greater than 100 µM.

Work on `O=C1CCCN(c2ccccc2)N1` yielded a TGI (DMS 114 small cell lung) greater than 100 µM, a TGI (DMS 273 small cell lung) greater than 100 µM and a TGI (KM20L2 colon) greater than 100 µM. It also gave a TGI (LXFL 529 NSCLC) greater than 100 µM, a TGI (M19-MEL melanoma) greater than 100 µM and a TGI (RXF 393 renal) greater than 100 µM. It also gave a TGI (RXF-631 renal) greater than 100 µM and a TGI (SR leukemia) greater than 100 µM.

`O=C1CC(O)c2c1csc2Br` (stereo unspecified) showed a TGI (RXF 393 renal) of 38.1 µM.

`Cc1c(Cl)cccc1NC(=O)C(=O)C1C(=O)CC(C)(C)CC1=O` gave a TGI (DLD-1 colon) greater than 100 µM, a TGI (DMS 114 small cell lung) greater than 100 µM and a TGI (DMS 273 small cell lung) greater than 100 µM. The TGI (HOP-18 NSCLC) was greater than 100 µM, the TGI (KM20L2 colon) was greater than 100 µM and the TGI (LXFL 529 NSCLC) was greater than 100 µM. The TGI (M19-MEL melanoma) was greater than 100 µM, the TGI (RXF 393 renal) was greater than 100 µM and the TGI (RXF-631 renal) was greater than 100 µM. For the same compound, the TGI (SNB-78 CNS) was greater than 100 µM and the TGI (SR leukemia) was greater than 100 µM.

`c1ccc(C[P+]2(c3ccccc3)c3ccccc3-c3ccccc32)cc1` gave a TGI (RXF 393 renal) greater than 100 µM.

Compound `O=C(Cc1nc2ccc(C(=O)c3ccccc3)cc2[nH]c1=O)C(=O)Nc1ccc(Br)cc1` has a TGI (RXF 393 renal) greater than 100 µM.

`CCOC(=O)c1cc(=C2\CCN(CC(C)CC)C2=S)/c(=C(/O)CC)[nH]1` (stereo unspecified) was tested, and the TGI (RXF 393 renal) was 44.9 µM and the TGI (SR leukemia) was 26.3 µM.

Work on `O=c1c2ccccc2[nH]c(=S)n1-c1ccc(N=Nc2cccc3c(O)cccc23)cc1` yielded a TGI (RXF 393 renal) greater than 100 µM and a TGI (SR leukemia) greater than 100 µM.

`CC(C)C(Sc1nc(-c2ccccc2)c(-c2ccccc2)[nH]1)C(=O)NNC(=S)Nc1ccccc1` (stereo unspecified) gave a TGI (DLD-1 colon) of 52 µM, a TGI (DMS 273 small cell lung) of 34.8 µM and a TGI (KM20L2 colon) of 37.6 µM. The TGI (LXFL 529 NSCLC) was 33.8 µM, the TGI (M19-MEL melanoma) was 33.4 µM and the TGI (SNB-78 CNS) was 79.6 µM. The TGI (SR leukemia) was 64.2 µM and the TGI (XF 498 CNS) was 32.7 µM.

With `Nc1nc(Cl)cc(NCC2(CO)CC(CCc3ccccc3)C2)n1` (stereo unspecified) the TGI (RXF 393 renal) was greater than 100 µM and the TGI (SR leukemia) was greater than 88.8 µM.
